≈ marks a conversion by molar mass, not a printed value.
How the values were obtained:
[1] = test system: Zymoseptoria tritici (Septotia tritici); assay: Growth of fungal plant pathogen on amended potato dextrose agar (colony surface area); assay type: cell-based; settings: 0.5 g/L in buffered PDA pH 6.2, 10 days, darkness, 68° F.
Procedure: Zymoseptoria tritici (Septotia tritici) was grown in petri dishes on buffered (pH 6.2) potato dextrose agar (PDA), amended with penicillin (100 mg/L) and streptomycin (100 mg/L) as well as 2HOP (0.5 g/L) or […]). Five replicate plates/treatments were used and the cultures were grown for 10 days in darkness at 68° F. At the end of the 10-day period, the cultures were assessed in terms of the total surface area of growth of the colonies.

lettuce plants = assay: Foliar treatment of lettuce plants, tissue aromatic amino acids; assay type: in vivo; settings: 0.5 g/L
Source text: This is further supported by the data in Table 4 where foliar treatment of lettuce plants with […]) or 2HOP (0.5 g/L) increased the tissue levels of aromatic amino acids which are synthesized in the Shikimic acid pathway, a pathway that has a known role in modulation of plant innate tolerance to abiotic and biotic stresses such as disease.

Wheat (Winter White) = assay: Herbicide phytotoxicity on greenhouse wheat with and without 2HOP or L-PGA; assay type: in vivo; settings: for phytotoxic impact of herbicides on wheat: combined with herbicides, foliar, assessed 10 days after application; for canopy biomass compared to the untreated: solo applications, 10 days post-treatment, visual
Procedure: Wheat (Winter White) seeds (5 g) were sown in a 1-gallon pot in a greenhouse under natural light with a diurnal temperature range of 75° F. to 90° F. Various herbicides were applied alone or in combinations with L-PGA or 2HOP. Materials were applied at the equivalent rate of 100 L water/Ha with 0.25% v/v polyalkyl glucoside added as a wetting agent. There were 4 replicates per treatment, with 1 pot/replicate. 10 days after sowing, plants received a light cover spray at an equivalent application volume of 25 gallons/acre. Plants were destructively assessed 10 days later by measuring the total above-ground biomass of each replicate.

oat seedlings [2] = assay: Proline accumulation in oat seedlings; assay type: in vivo; settings: weekly foliar 100 micromolar, 3 weeks; untreated undetectable
Procedure: Sets of oat seedlings were grown and either treated or not treated with 2-hydroxy-5-oxoproline. The plants were grown in a greenhouse at 75° F. with ambient light and provided a standard complete nutrient plant food. Weekly foliar treatments were applied with 100 micromolar 2HOP began at the two-true leaf stage and continued for 3 weeks. Leaves from 20 plants were sampled and the free pools of proline were measured.

[3] = test system: Peace Lily (Spathiphyllum); assay: Cold tolerance in a cold sensitive plant; assay type: in vivo; settings: foliar 1 g/L; 4 days of 34-35° F. for 5-6 hours/day one week after treatment
Procedure: The popular ornamental plant, the “Peace Lily”, is in the genus Spathiphyllum and all species are indigenous to the tropics. […] Three groups of containerized plants (in 6-inch pots, growing in a standard potting media) were established, and foliarly treated with 1 g/L 2HOP or LPGA. A surfactant (polyalkyl glucoside) at 0.25% v/v was added to both treatments to improve leaf coverage. Plants were treated and one week later were exposed 4 days to a diurnal regime of low temperatures (34° F. to 35° F.) for at least 5-6 hours/day and a high temperature of 55° F. to 57° F. for the remainder of the day. Plants were under a natural light regime. […] See Table 10 in FIG. 7A and FIG. 7B.

oat seedlings [4] = assay: Nitrate uptake rate of hydroponic oat seedlings; assay type: in vivo; settings: first four hours of treatment
Procedure: Oat seedlings were either treated or untreated and their rates of nitrogen uptake were measured. Oat seedlings were hydroponically grown in a greenhouse under ambient light at 75° F. with a complete standard soluble nutrient solution. They were acclimated to constant light, then deprived of nitrogen for a period, and then their nitrogen (nitrate) was replenished with or without 2HOP in the nutrient solution. The plant root systems were submerged in the appropriate solutions and the plants were allowed to grow and take up nitrate. The depletion of nitrate from the solution was measured every four hours to determine the rate of nitrate uptake by the plants.

leaf lettuce seedlings = assay: Dry weight and carbon fixation capability in lettuce; assay type: in vivo; settings: weekly foliar 100 micromolar
Procedure: Sets (replicates) of leaf lettuce seedlings were treated with 2HOP or left untreated. Seedlings were grown in a greenhouse (75° F.) with ambient light, supplied with a standard liquid nutrient solution. The treated plants received weekly foliar sprays containing 100 micromolar 2HOP. Each replicate contained 20 plants in a tray. All plants were assessed for each prescribed parameter. For all parameter values vs control p=<0.05. RUBISCO is ribulose bisphosphate carboxylase, the major carbon-fixing enzyme.

oat seedlings [5] = assay: Soil application, carbon fixation capability in greenhouse grown oats; assay type: in vivo; settings: soil drench 75 nanomoles daily; for increase of CO2 fixation compared to the untreated: plants 28 days old
Procedure: Sets (replicates) of oat seedlings were treated with 2HOP, L-PGA, or left untreated. Seeds were planted in standard potting soil in a greenhouse at a constant 75° F. under natural light, supplied a standard liquid nutrient solution, and treated daily with 75 nanomoles of either 2HOP or L-PGA beginning 14 days after seedling emergence. The treatments were applied as a soil drench. The CO2 fixation rates were measured when plants were 28 days old. The ribulose bisphosphate carboxylase (RUBISCO) activation state was measured when plants were 26 days old. The rates for 20 plants were averaged for each set of plants. […] L-PGA increased CO2 fixation compared to the untreated by 21%. However, when 2HOP is compared to L-PGA in terms of CO2 fixation, 2HOP fixed CO2 at over an 11% higher rate (see Table 14).

oat seedlings [6] = assay: Leaf protein content of oat seedlings; assay type: in vivo; settings: three weekly foliar treatments 100 micromolar
Procedure: Sets of oat seedlings were treated or untreated with 2HOP and the total foliar protein content was compared. Seedlings were greenhouse-grown at 75° F. under ambient light and provided a standard complete nutrient. The seedlings were given three weekly foliar treatments with 2HOP (100 micromolar) beginning at the two-true leaf stage.

Pepper and tomato plants = assay: Leaf numbers, leaf area and dry weight of greenhouse-grown tomato and pepper; assay type: in vivo; settings: foliar 1 g/L or 0.5 g+0.5 g/L, assessed at eight weeks
Procedure: Pepper and tomato plants were grown from seedlings for eight weeks in a greenhouse with ambient light at a constant 75° F. temperature. All plants received a standard fertigation treatment. Plants were destructively assessed at eight weeks. Each treatment had 20 single-plant replicates. Plants were treated with foliar applications of 2HOP (1 g/L water), […] water), or […] water). Each plant received approximately 50 ml of spray solution (sprayed to drip). All treatments included a wetting agent (polyalkyl glucoside) at 0.025% v/v addition. Plants received a light, cover spray at week 4. Plants were assessed in terms of leaf number per plant, leaf area/plant, and total dry weight/plant. In addition, at harvest, a composite leaf sample (10 leaves/plant, 200 leaves total) from each tomato treatment was collected, pooled with the other replicates, and assessed for elemental content which is presented in Table 18.

[7] = test system: Hard Red Wheat seeds (variety Glenn); assay: Seed treatment, greenhouse-grown wheat leaf emergence; assay type: in vivo; settings: greenhouse 65° F.
Procedure: The treatments were pre-diluted in an equivalent of 2 liters of water and applied to one ton of seed. The seeds were planted in a 30 cm×30 cm flat tray at 1 seed/cm^2 in a naturally illuminated greenhouse maintained at 65° F. See Table 19 in FIG. 14.

[8] = test system: Wheat seeds (Skyfall variety); assay: Seed treatment, field grown wheat emergence and yield; assay type: in vivo
Source text: The treatments were pre-diluted in an equivalent of 2 liters of water and applied to one ton of seed. The seeds were planted in the fall at a rate of 200 kg/ha.

physchem = settings: aqueous solutions
Grapevines = assay: Yield from grapevines grown in nematode infested soil; assay type: in vivo, grapevine; settings: L-PGA root drench 1 g/L, Nemacur 7.5 ml/vine, vs untreated vines
Procedure: (§1) Grapevines were treated with L-PGA alone or in combination with Nemacur® at two sites in California. […] Vines at both sites were 6 years old and replanted into sandy soil (CEC <7 meq/100 g soil) previously planted with vines. […] Site 2 was in Fresno County (var: Thompson seedless) and at this site several parasitic nematode species were in evidence (Table 8). Several treatments were undertaken as per Tables 6 & 7. Untreated vines received the standard grower cultural management programs. At both sites the plants were ungrafted. At Site 1, soil levels of nematodes were assessed prior to the onset of treatments and at various times throughout the trial (as given in Table 7). Plants were treated in the spring, summer, and fall and assessed 12, 13, 15 and, 24 months later at Site 1. Yield data were collected at both sites. Site 1 was treated for two seasons and yield was collected over two seasons. At Site 2, yields were collected and soil nematode levels were assessed 18 months after the onset of the treatments. Site 2 was only treated for one season and only one crop year was assessed.

[9] = test system: Root Knot nematode (Meloidogyne incognita, M. javanica, M. arenaria, and M. hapla); assay: Soil Root Knot nematode populations, grapevines, Site 1; assay type: in vivo; settings: Site 1, after 15 months
Procedure: as §1

[10] = test system: free-living (beneficial nematodes); settings: in vivo
Procedure: as §1

plant parasitic nematode = assay: Soil plant parasitic nematode populations, grapevines, Site 2; assay type: in vivo, nematodes; settings: Site 2, L-PGA combined with Nemacur
Procedure: L-PGA was applied by drenching the roots with a solution (5 liters per plant) containing 1 g/L L-PGA. Nemacur® 400ec was applied as a labelled commercial treatment to specific rows at the trial locations by injection through the micro irrigation system (7.5 ml/vine). Each treatment comprised 20 vines in five replicate blocks (4 vines/replicate). […] Several treatments were undertaken as per Tables 6 & 7. Untreated vines received the standard grower cultural management programs. At both sites the plants were ungrafted. […] Yield data were collected at both sites.

[11] = test system: Fusarium graminearum Schwabe Group 2; assay type: in vivo, Fusarium graminearum on wheat; settings: foliar applications to infected wheat; ELISA on pooled grain

**Q.** Which “direct suppression of fungal growth (total surface area of colonies)” value [1] does the source give for `O=C1CC[C@@](O)(C(=O)O)N1` [2HOP, 2-hydroxy-5-oxoproline] here?
**A.** no direct suppression of fungal growth

**Q.** And the “tissue levels of aromatic amino acids” value (lettuce plants)?
**A.** increased

**Q.** And the “phytotoxic impact of herbicides on wheat” value (Wheat (Winter White))?
**A.** suppression of the phytotoxic impact

**Q.** And the “canopy biomass compared to the untreated” value (Wheat (Winter White))?
**A.** visual increase in canopy biomass

**Q.** And the “free proline pools in leaves” value (oat seedlings [2])?
**A.** 2.6 micromol/g fwt

**Q.** What about the “cold damage compared with untreated plants” value [3] of the same compound?
**A.** less cold damage

**Q.** And the “rate of nitrate uptake relative to untreated counterparts” value (oat seedlings [4])?
**A.** approximately double

**Q.** What about the “rate of nitrate uptake” value (oat seedlings [4]; untreated 5.8) of the same compound?
**A.** 11.5 umol/gfwt/h

**Q.** What about the “elevation of CO2 fixation” value (leaf lettuce seedlings) of the same compound?
**A.** > 50%

**Q.** And the “elevation of RUBISCO activation” value (leaf lettuce seedlings)?
**A.** 129%

**Q.** What about the elevation of biomass (leaf lettuce seedlings; average across all biomass parameters) of the same compound?
**A.** 34%

**Q.** And the “CO2 fixation rate, 2HOP compared to L-PGA” value (oat seedlings [5]; higher rate than L-PGA)?
**A.** > 11%

**Q.** And the “increase of RUBISCO activation” value (oat seedlings [5]; plants 26 days old)?
**A.** 48%

**Q.** And the “increase of CO2 fixation compared to the untreated” value (oat seedlings [5])?
**A.** 34%

**Q.** And the “total foliar fresh weight, % of the control plants” value (oat seedlings [6])?
**A.** 183%

**Q.** What about the “total foliar protein, % of untreated control plants” value (oat seedlings [6]) of the same compound?
**A.** 252%

**Q.** What about the “total protein in the foliar parts, % of untreated control plants” value (oat seedlings [6]) of the same compound?
**A.** 252%

**Q.** And the foliar protein concentration (oat seedlings [6]; control 6.0)?
**A.** 8.8 mg/g fresh weight

**Q.** What about the “number of leaves, leaf area, and total dry weight” value (Pepper and tomato plants) of the same compound?
**A.** greatest increases

**Q.** And the “leaf emergence compared to the untreated group” value [7]?
**A.** increased

**Q.** And the “wheat yield compared to the untreated plots” value [8]?
**A.** increased

**Q.** What about the solubility (physchem) of the same compound?
**A.** 145 to 435 mg/mL (≈ 999 to 3000 mM)

**Q.** Which results are given for `O=C1CC[C@@H](C(=O)O)N1` [L-PGA, L-pyroglutamate]?
**A.** direct suppression of fungal growth (total surface area of colonies) [1]: no direct suppression of fungal growth; tissue levels of aromatic amino acids (lettuce plants): increased; yield of grapevines (Grapevines): elevated yield; soil Root Knot nematode populations [9]: reduced; effect on free-living (beneficial nematodes) [10]: minimal effect; efficacy of Nemacur in soil plant parasitic nematode population suppression (plant parasitic nematode): increased the efficacy; phytotoxic impact of herbicides on wheat (Wheat (Winter White)): suppression of the phytotoxic impact; canopy biomass compared to the untreated (Wheat (Winter White)): visual increase in canopy biomass; cold damage compared with untreated plants [3]: less cold damage; increase of CO2 fixation compared to the untreated (oat seedlings [5]): 21%; increase of emergence versus the untreated [7]: 19%; leaf emergence compared to the untreated group [7]: increased; wheat yield compared to the untreated plots [8]: increased

**Q.** For calcium phosphite, which DON grain levels [11] is on record?
**A.** largest reduction
